Test results reported in patent US20140288074A1, “FUNGICIDAL PYRAZOLES” (E I DU PONT DE NEMOURS AND COMPANY, priority 2013, published 2014).

What was measured:
Assay type in all cases: in vivo
[1] = test system: Botrytis cinerea; experiment: Test A: preventive spray on tomato seedlings, tomato Botrytis, visual disease rating; conditions: 200 ppm test suspension, Botrytis cinerea inoculated the day after spraying; for pest or weed control at 200 ppm: 120 h
Procedure: General protocol for preparing test suspensions for Tests A-G: the test compounds were first dissolved in acetone in an amount equal to 3% of the final volume and then suspended at the desired concentration (in ppm) in acetone and purified water (50/50 mix by volume) containing 250 ppm of the surfactant Trem® 014 (polyhydric alcohol esters). The resulting test suspensions were then used in Tests A-G. Each test was conducted in triplicate, and the results were averaged. Spraying a 200 ppm test suspension to the point of run-off on the test plants was the equivalent of a rate of 800 g/ha. Unless otherwise indicated, the rating values indicate a 200 ppm test suspension was used. (An asterisk “*” next to the rating value indicates a 40 ppm test suspension was used.) The test suspension was sprayed to the point of run-off on tomato seedlings. The following day the seedlings were inoculated with a spore suspension of Botrytis cinerea (the causal agent of tomato Botrytis) and incubated in saturated atmosphere at 20° C. for 48 h, and then moved to a growth chamber at 24° C. for 3 additional days, after which time visual disease ratings were made. Results for Tests A-G are given in Table A. In the Table, a rating of 100 indicates 100% disease control and a rating of 0 indicates no disease control (relative to the controls). A hyphen (-) indicates no test results.

[2] = test system: Septoria tritici; experiment: Test D: preventive spray on wheat seedlings, wheat leaf blotch, visual disease rating; conditions: 200 ppm test suspension, Septoria tritici inoculated the day after spraying; for pest or weed control at 200 ppm: Zymoseptoria tritici, 504 h
Procedure: General protocol for preparing test suspensions for Tests A-G: the test compounds were first dissolved in acetone in an amount equal to 3% of the final volume and then suspended at the desired concentration (in ppm) in acetone and purified water (50/50 mix by volume) containing 250 ppm of the surfactant Trem® 014 (polyhydric alcohol esters). The resulting test suspensions were then used in Tests A-G. Each test was conducted in triplicate, and the results were averaged. Spraying a 200 ppm test suspension to the point of run-off on the test plants was the equivalent of a rate of 800 g/ha. Unless otherwise indicated, the rating values indicate a 200 ppm test suspension was used. (An asterisk “*” next to the rating value indicates a 40 ppm test suspension was used.) The test suspension was sprayed to the point of run-off on wheat seedlings. The following day the seedlings were inoculated with a spore suspension of Septoria tritici (the causal agent of wheat leaf blotch) and incubated in saturated atmosphere at 24° C. for 48 h. and then the seedlings were moved to a growth chamber at 20° C. for 19 additional days, after which time visual disease ratings were made. Results for Tests A-G are given in Table A. In the Table, a rating of 100 indicates 100% disease control and a rating of 0 indicates no disease control (relative to the controls). A hyphen (-) indicates no test results.

[3] = test system: Puccinia recondita f. sp. tritici; experiment: Test F: preventive spray on wheat seedlings, wheat leaf rust, visual disease rating; conditions: 200 ppm test suspension, Puccinia recondita f. sp. tritici inoculated the day after spraying; for pest or weed control at 200 ppm: 168 h
Procedure: General protocol for preparing test suspensions for Tests A-G: the test compounds were first dissolved in acetone in an amount equal to 3% of the final volume and then suspended at the desired concentration (in ppm) in acetone and purified water (50/50 mix by volume) containing 250 ppm of the surfactant Trem® 014 (polyhydric alcohol esters). The resulting test suspensions were then used in Tests A-G. Each test was conducted in triplicate, and the results were averaged. Spraying a 200 ppm test suspension to the point of run-off on the test plants was the equivalent of a rate of 800 g/ha. Unless otherwise indicated, the rating values indicate a 200 ppm test suspension was used. (An asterisk “*” next to the rating value indicates a 40 ppm test suspension was used.) The test suspension was sprayed to the point of run-off on wheat seedlings. The following day the seedlings were inoculated with a spore suspension of Puccinia recondita f. sp. tritici (the causal agent of wheat leaf rust) and incubated in a saturated atmosphere at 20° C. for 24 h, and then moved to a growth chamber at 20° C. for 6 days, after which time visual disease ratings were made. Results for Tests A-G are given in Table A. In the Table, a rating of 100 indicates 100% disease control and a rating of 0 indicates no disease control (relative to the controls). A hyphen (-) indicates no test results.

[4] = test system: Septoria nodorum; experiment: Test C: preventive spray on wheat seedlings, Septoria glume blotch, visual disease rating; conditions: 200 ppm test suspension, Septoria nodorum inoculated the day after spraying; for pest or weed control at 200 ppm: Parastagonospora nodorum, 264 h
Procedure: General protocol for preparing test suspensions for Tests A-G: the test compounds were first dissolved in acetone in an amount equal to 3% of the final volume and then suspended at the desired concentration (in ppm) in acetone and purified water (50/50 mix by volume) containing 250 ppm of the surfactant Trem® 014 (polyhydric alcohol esters). The resulting test suspensions were then used in Tests A-G. Each test was conducted in triplicate, and the results were averaged. Spraying a 200 ppm test suspension to the point of run-off on the test plants was the equivalent of a rate of 800 g/ha. Unless otherwise indicated, the rating values indicate a 200 ppm test suspension was used. (An asterisk “*” next to the rating value indicates a 40 ppm test suspension was used.) The test suspension was sprayed to the point of run-off on wheat seedlings. The following day the seedlings were inoculated with a spore suspension of Septoria nodorum (the causal agent of Septoria glume blotch) and incubated in a saturated atmosphere at 24° C. for 48 h, and then moved to a growth chamber at 20° C. for 9 days, after which time visual disease ratings were made. Results for Tests A-G are given in Table A. In the Table, a rating of 100 indicates 100% disease control and a rating of 0 indicates no disease control (relative to the controls). A hyphen (-) indicates no test results.

[5] = test system: Blumeria graminis f. sp. tritici; experiment: Test G: preventive spray on wheat seedlings, wheat powdery mildew, visual disease rating;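 as to all read-outs here: rated 8 days after spore dust inoculation at 20 °C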; conditions: 200 ppm test suspension, Blumeria graminis f. sp. tritici inoculated the day after spraying; for pest or weed control at 200 ppm: 192 h
Procedure: General protocol for preparing test suspensions for Tests A-G: the test compounds were first dissolved in acetone in an amount equal to 3% of the final volume and then suspended at the desired concentration (in ppm) in acetone and purified water (50/50 mix by volume) containing 250 ppm of the surfactant Trem® 014 (polyhydric alcohol esters). The resulting test suspensions were then used in Tests A-G. Each test was conducted in triplicate, and the results were averaged. Spraying a 200 ppm test suspension to the point of run-off on the test plants was the equivalent of a rate of 800 g/ha. Unless otherwise indicated, the rating values indicate a 200 ppm test suspension was used. (An asterisk “*” next to the rating value indicates a 40 ppm test suspension was used.) The test suspension was sprayed to the point of run-off on wheat seedlings. The following day the seedlings were inoculated with a spore dust of Blumeria graminis f. sp. tritici (also known as Erysiphe graminis f. sp. tritici, the causal agent of wheat powdery mildew) and incubated in a growth chamber at 20° C. for 8 days, after which time visual disease ratings were made. Results for Tests A-G are given in Table A. In the Table, a rating of 100 indicates 100% disease control and a rating of 0 indicates no disease control (relative to the controls). A hyphen (-) indicates no test results.

| Compound | Test A rating (disease control) [1] | Test D rating (disease control) [2] | Test F rating (disease control) [3] | Test C rating (disease control) [4] | Test G rating (disease control) [5] | pest or weed control at 200 ppm [1] | pest or weed control at 200 ppm [2] | pest or weed control at 200 ppm [3] | pest or weed control at 200 ppm [4] | pest or weed control at 200 ppm [5] |
| --- | --- | --- | --- | --- | --- | --- | --- | --- | --- | --- |
| 4-(2-chloro-6-fluorophenyl)-N,1,3-trimethyl-α-(1-methylpropyl)-1H-pyrazole-5-methanamine [Compound 34] | 0% | 12% | 90% | 99% | 0% |  |  |  |  |  |
| Cc1nn(C)c(OCC(C)C)c1-c1c(F)cc(F)cc1F [Compound 22, 1,3-dimethyl-5-(2-methylpropoxy)-4-(2,4,6-trifluorophenyl)-1H-pyrazole] |  |  |  |  |  | 0% | 0% | 17% | 0% | 0% |
| CCC(C)COc1c(-c2ccc(F)cc2Br)c(C)nn1C (centres unmarked) [Compound 23, 4-(2-bromo-4-fluorophenyl)-1,3-dimethyl-5-(2-methylbutoxy)-1H-pyrazole] |  |  |  |  |  | 70% | 95% | 9% | 0% | 0% |
| Cc1nn(C)c(C(O)C(C)C)c1-c1c(F)cccc1Cl (stereo not drawn) [Compound 24, 4-(2-chloro-6-fluorophenyl)-1,3-dimethyl-α-(1-methylethyl)-1H-pyrazole-5-methanol] |  |  |  |  |  | 99% | 91% | 99% | 98% | 97% |
| CNC(c1c(-c2c(F)cccc2Cl)c(C)nn1C)C(C)C (stereo not drawn) [Compound 25, 4-(2-chloro-6-fluorophenyl)-N,1,3-trimethyl-α-(1-methylethyl)-1H-pyrazole-5-methanamine] |  |  |  |  |  | 0% | 25% | 99% | 100% | 99% |
| CSC(c1c(-c2c(F)cccc2Cl)c(C)nn1C)C(C)C (centres unmarked) [Compound 26, 4-(2-chloro-6-fluorophenyl)-1,3-dimethyl-5-[2-methyl-1-(methylthio)propyl]-1H-pyrazole] |  |  |  |  |  | 0% | 3% | 98% | 99% | 0% |
| Cc1nn(C)c(OCC2CC2)c1-c1ccc(F)cc1Cl [Compound 27, 4-(2-chloro-4-fluorophenyl)-5-(cyclopropylmethoxy)-1,3-dimethyl-1H-pyrazole] |  |  |  |  |  | 99% | 100% | 9% | 69% | 0% |
| Cc1nn(C)c(OC2CCCCC2)c1-c1ccc(F)cc1Cl [Compound 28, 4-(2-chloro-4-fluorophenyl)-5-(cyclohexyloxy)-1,3-dimethyl-1H-pyrazole] |  |  |  |  |  | 95% | 100% | 58% | 0% | 73% |
| Cc1nn(C)c(OCC(C)C)c1-c1ccc(F)cc1Cl [Compound 29] | 0% | 63% | 99% | 100% | 0% |  |  |  |  |  |
| COCCOc1c(-c2ccc(F)cc2Cl)c(C)nn1C [Compound 30, 4-(2-chloro-4-fluorophenyl)-5-(2-methoxyethoxy)-1,3-dimethyl-1H-pyrazole] |  |  |  |  |  | 91% | 85% | 58% | 0% | 0% |
| Cc1nn(C)c(OC(C)C)c1-c1ccc(F)cc1Cl [Compound 31] | 0% | 0% | 22% | 0% | 0% |  |  |  |  |  |
| Cc1nn(C)c(C(N)C(C)C)c1-c1c(F)cccc1Cl (centres unmarked) [Compound 32] | 0% | 94% | 96% | 100% | 0% |  |  |  |  |  |
| CCC(C)C(N)c1c(-c2c(F)cccc2Cl)c(C)nn1C (stereo not drawn) [Compound 33, 4-(2-chloro-6-fluorophenyl)-1,3-dimethyl-α-(1-methylpropyl)-1H-pyrazole-5-methanamine] |  |  |  |  |  | 90% | 92% | 80% | 98% | 56% |
| CCC(C)C(SC)c1c(-c2c(F)cccc2Cl)c(C)nn1C (centres unmarked) [Compound 35, 4-(2-chloro-6-fluorophenyl)-1,3-dimethyl-5-[2-methyl-1-(methylthio)butyl]-1H-pyrazole] |  |  |  |  |  | 0% |  | 0% | 0% | 69% |
| COCCN(CCOC)c1c(-c2c(F)cc(F)cc2F)c(C)nn1C [Compound 51] | 82% |  | 99% | 100% | 55% |  |  |  |  |  |
| Cc1nn(C)c(NCC(C)C)c1-c1c(F)cc(F)cc1F [Compound 53] | 95% |  | 100% | 100% | 81% |  |  |  |  |  |
